According to patent US8853227B2, “Methotrexate adjuvants to reduce toxicity and methods for using the same” (Tosk, Incorporated, priority 2008, dated 2014):
“Also recorded” adds a separate entry of the source.

Assays:
[1] = tested on: Wild-type (Oregon-R) Drosophila melanogaster; assay: Fly Study II, MTX lethality in wild-type flies; format: in vivo
Description: (§1) Embryos of UPase knockout (19519) Drosophila melanogaster were orally exposed to a dose range of MTX doses in food admix. Embryos of Wild-type (Oregon-R) were orally exposed to the same dose range of MTX in presence and absence of 0.04 mg TK-112690. Scoring was based on life or death 15 days after initiation of MTX exposure. […] Wild-type D. melanogaster are sensitive to lethal effects of 0.1 mg MTX.
(§2) The aim of this study was to evaluate the lethal effects of a range (0.001, 0.01, 0.05, 0.1, 0.2, 0.4 mg) of doses of orally fed MTX in wild-type (Ore-R) and UPase mutant Drosophila melanogaster. Embryos of UPase knockout (19519) Drosophila melanogaster were orally exposed to a dose range of MTX (0.001, 0.01, 0.05, 0.1, 0.2, 0.4 mg) in food admix. Embryos of Wild-type (Oregon-R) were orally exposed to the same dose range of MTX in presence and absence of 0.04 mg TK-112690. Scoring was based on life or death 15 days after initiation of MTX exposure.

[2] = tested on: UPase knockout (19519) Drosophila melanogaster; assay: Fly Study II, MTX lethality in UPase knockout flies; format: in vivo
Description: as §1, §2

[3] = Mouse Study II (protection from loss of mucosal permeability, oral iodixanol in plasma); format: in vivo, C57BI/6 female mice; conditions: day 7
Description: C57BI/6 female mice (n=7) were treated intraperitoneal (ip) with 100 mg/kg MTX on days 2, 3 and 4 with and without 60 mg/kg TK-112690 (ip) three hours before, and after, MTX injections. On day 7, mucosal barrier injury was estimated by measuring plasma concentrations of orally administered iodixanol determined by HPLC using UV detection (Boxplots with minimum and maximum values (black lines). Orally administered iodixanol is not absorbed absent an increase in mucosal permeability. Group 1=saline control, Group 2=MTX and Group 3=MTX+TK-112690.
The aim of this study was to evaluate the ability of a representative a 2,2′-anhydropyrimidine test article to mitigate MTX-induced loss of mucosal permeability. C57BI/6 female mice (n=7) were treated (ip) with 100 mg/kg MTX on days 2, 3 and 4 with and without 60 mg/kg TK-112690 (ip) three hours before, and after, MTX injections. On day 7, mucosal barrier injury was estimated by measuring plasma concentrations of orally administered iodixanol determined by HPLC using UV detection. Orally administered iodixanol is not absorbed absent an increase in mucosal permeability.

[4] = Mouse Study III (infection study, WBC counts); format: in vivo, C57BL/6 mice; conditions: Day 11
Description: C57BL/6 mice (n=10/dose group), treated i.p. 50 mg/kg MTX on Day 1, 2, 3, 4, 6 and 8 along with 60 mg/kg TK-112690 i.p. 3 hr±MTX followed by single daily doses TK-112690 on days not treated with MTX. On Day 11, the animals were sacrificed and hematology performed on the resulting blood. Group 1=saline control, Group 2=MTX control and Group 3=MTX+TK-112690.
For the study whose data are presented in FIG. 4, C57BL/6 mice (n=10/dose group) were treated i.p. with 50 mg/kg MTX on Day 1, 2, 3, 4, 6 and 8 along with 60 mg/kg TK-112690 i.p. 3 hr±MTX followed by single daily doses TK-112690 on days not treated with MTX. On Day 11, the animals were bled and hematology performed on the resulting blood samples. Following the hematology measurements, the animals were sacrificed.

AS283 cells = assay: Cell Culture Study II (MTX cytotoxicity, CellTiter-Glo); format: cell-based, human; conditions: 72 hours
Description: In this study, AS283 cells were grown in RPMI-1640 supplemented with L-glutamine dipeptide, sodium pyruvate, HEPES, and 10% FBS. AS283 cells were used to seed three 96-well plates with 10,000 cells/well in a total volume of 50 μL. Medium alone wells were seeded 100 μL medium. Plates were incubated overnight. The following day, 25 μL of the TK-112690 and MTX stock solutions were added to the appropriate wells. TK-112690 was added first, followed by MTX in all wells. 25 μL of vehicle was added to TK-112690 alone wells. 25 μL of vehicle and 25 μL medium were added to vehicle control wells, and 50 μL medium was added to cell control wells. Cell viability was measured using CellTiter-Glo and DOX (10 μM) was used as a reference standard. The plates were incubated at 37° C., 5% CO2 for 72 hours then removed from the incubator and placed on the bench at room temperature for 30 min. The plates were not stacked or shaken. […] Luminescence was recorded on TriLux. […]
AS283 cells were grown in RPMI-1640 supplemented with L-glutamine dipeptide, sodium pyruvate, HEPES, and 10% FBS. […] Cell viability was measured using CellTiter-Glo and DOX (10 μM) was used as a reference standard.
The plates were incubated at 37° C., 5% CO2 for 72 hours then removed from the incubator and placed on the bench at room temperature for 30 min. […] Luminescence was recorded on TriLux.

SMILES | MTX dose lethal to wild-type flies ([1]; oral in food admix, 15 days after initiation of MTX exposure) | sensitivity of UPase knockout flies to lethal effects of MTX ([2]; MTX 0.001-0.4 mg oral, 15 days) | mucosal barrier injury (increased plasma iodixanol) ([3]; 100 mg/kg MTX ip on Days 2, 3 and 4) | systemic WBC level ([4]; 50 mg/kg MTX ip Day 1, 2, 3, 4, 6, 8, p<0.02 vs saline or MTX+TK-112690) | cytotoxicity to AS283 cancer cells (AS283 cells; MTX 0.01-100 μM) | sensitivity of wild-type flies to lethal effects of MTX in the presence of TK-112690 ([1]; 0.04 mg TK-112690, MTX 0.001-0.4 mg oral, 15 days) | methotrexate dose from whose lethality TK-112690 protects ([1]; 0.04 mg TK-112690, wild-type flies, 15 days) | added protection from methotrexate toxicities by TK-112690 in UPase mutant flies ([2]; UPase mutant flies, dose range of methotrexate) | protection from MTX-induced mucosal barrier injury (plasma concentration of orally administered iodixanol) ([3]; 60 mg/kg ip 3 h before and after 100 mg/kg MTX, days 2, 3, 4, p<0.05) | protection from MTX-induced mucositis measured as prevention of WBC increase ([4]; 60 mg/kg ip 3 hr ± MTX 50 mg/kg) | effect of TK-112690 on MTX cytotoxicity (cell viability) (AS283 cells; TK-112690 1, 10, 100 μM + MTX 0.01-100 μM)
CN(Cc1cnc2nc(N)nc(N)c2n1)c1ccc(C(=O)N[C@@H](CCC(=O)O)C(=O)O)cc1 [MTX, N-[4-[[(2,4-diamino-6-pteridinyl)methyl]methylamino]benzoyl]-L-glutamic acid, reference compound] | 0.1 mg | resistant to lethal effects | experienced mucosal barrier injury | increases systemic WBC | cytotoxic |  |  |  |  |  | 
Cc1cn2c(nc1=O)O[C@H]1[C@H](O)[C@@H](CO)O[C@H]12 [TK-112690, 2,2′-anhydro-5-methyluridine] |  |  |  |  |  | resistant to the lethal effects | ≤ 0.4 mg | does not provide added protection | protected mice from MTX-induced mucosal barrier injury | protects from MTX-induced mucositis | did not diminish the cytotoxicity of MTX; also recorded: no statistical difference
